In brackets after ≈: the same amount, converted by molar mass.
How the values were obtained:
[1] = Compound was measured for binding rate for human serum at a carbapenem concentration of 10 ug/mL; type: ADME; details: read-out: Protein binding (converted)
[2] = molecular target: T1, Dipeptidase 1 (Sus scrofa) (UniProt P22412); assay: Relative rate of hydrolysis of porcine renal dehydropeptidase-I (DHP-I) to imipenem; type: functional
T1 sequence (whole entry): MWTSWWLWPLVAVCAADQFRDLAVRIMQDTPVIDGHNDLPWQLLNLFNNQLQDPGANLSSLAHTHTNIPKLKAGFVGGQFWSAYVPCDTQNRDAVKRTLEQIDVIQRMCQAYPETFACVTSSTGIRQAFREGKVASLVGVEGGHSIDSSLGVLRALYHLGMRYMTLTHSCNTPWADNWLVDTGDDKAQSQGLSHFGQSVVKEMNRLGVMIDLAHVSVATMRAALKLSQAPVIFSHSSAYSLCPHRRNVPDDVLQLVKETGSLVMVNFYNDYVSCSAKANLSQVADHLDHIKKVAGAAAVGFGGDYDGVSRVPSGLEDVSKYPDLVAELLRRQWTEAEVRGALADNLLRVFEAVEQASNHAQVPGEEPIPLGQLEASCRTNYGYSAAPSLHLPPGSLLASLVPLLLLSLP

[3] = molecular target: T1, Dipeptidase 1 (Sus scrofa); assay: Compound was measured for DHP-I susceptibility; type: functional
Enterococcus faecalis = assay: In vitro antibacterial activity against Enterococcus faecalis MB4996 organism; type: functional
Escherichia coli = assay: In vitro antibacterial activity against Escherichia coli NIHJ JC2 organism; type: functional
Mus musculus = organism: Mus musculus; assay: Compound was measured for binding rate for mouse serum at a carbapenem concentration of 10 ug/mL; type: functional
[4] = PBP-2'' affinity was determined by the competition assay with [14C]benzylpenicillin using membrane isolated from MRSA BB6294 strain; type: functional, Staphylococcus aureus
Pseudomonas aeruginosa = assay: In vitro antibacterial activity against Pseudomonas aeruginosa MB5002 organism; type: functional
Rattus norvegicus [5] = assay: Epileptogenicity of compound was measured at 100 ug/rat head by the rat intraventricular assay; 0/5; type: functional, Cerebral ventricle
[6] = test system: Staphylococcus epidermidis; assay: In vitro antibacterial activity against Staphylococcus epidermidis MB5181a organism; type: functional; details: Staphylococcus epidermidis; read-out: MIC
Staphylococcus aureus [7] = assay: Compound was tested in vivo for its anti-methicillin-resistant staphylococcus aureus(MRSA); type: functional
Staphylococcus aureus [8] = assay: In vitro antibacterial activity against staphylococcus aureus 209P NIHJ JC1 organism; type: functional
Staphylococcus aureus [9] = assay: In vitro antibacterial activity against staphylococcus aureus BB6294 organism (Methicillin-resistant strain); type: functional
Staphylococcus aureus [10] = assay: In vitro antibacterial activity against staphylococcus aureus CSa1009 (Methicillin-resistant strain and b beta-Lactamase producing strain); type: functional
Staphylococcus aureus [11] = assay: Compound was tested in vitro for its anti-methicillin-resistant staphylococcus aureus(MRSA); 3.13-6.25; type: functional
Rattus norvegicus [12] = assay: Epileptogenicity of compound was measured at 100 ug/rat head by the rat intraventricular assay; 3/5; type: functional
Staphylococcus aureus [13] = assay: Compound was tested in vitro for its anti-methicillin-resistant staphylococcus aureus(MRSA); 3.13-12.5; type: functional

| Structure (SMILES) | fraction unbound at 10 ug/mL [1] | DHP-I susceptibility [2] | DHP-I susceptibility [3] | MIC (Enterococcus faecalis) | MIC (Escherichia coli) | PPB (Mus musculus) | IC50 [4] | MIC (Pseudomonas aeruginosa) | Epileptogenicity (Rattus norvegicus [5]) | MIC [6] | ED50 (Staphylococcus aureus [7]) | MIC (Staphylococcus aureus [8]) | MIC (Staphylococcus aureus [9]) | MIC (Staphylococcus aureus [10]) | MIC (Staphylococcus aureus [11]) | ED50 (Staphylococcus aureus [7]; Staphylococcus aureus) | Epileptogenicity (Rattus norvegicus [12]) | MIC (Staphylococcus aureus [13]) |
| --- | --- | --- | --- | --- | --- | --- | --- | --- | --- | --- | --- | --- | --- | --- | --- | --- | --- | --- |
| C[C@@H](O)[C@H]1C(=O)N2C(C(=O)O)=C(SC(=S)N(C)C)[C@H](C)[C@H]12 | 0.12 | 2.12 | 2.12 | 12.5 µg/mL (≈ 37.8 µM) | 6.25 µg/mL (≈ 18.9 µM) | 69% | 9.6 µg/mL (≈ 29.1 µM) | 25 µg/mL (≈ 75.7 µM) | 0 | 6.25 µg/mL (≈ 18.9 µM) | 5.91 mg/kg | 0.012 µg/mL (≈ 0.0363 µM) | 3.13 µg/mL (≈ 9.47 µM) | 6.25 µg/mL (≈ 18.9 µM) | 4.59 µg/mL (≈ 13.9 µM) | – | – | – |
| C[C@@H](O)[C@H]1C(=O)N2C(C(=O)O)=C(SC(=S)N3CCCC(O)CC3)[C@H](C)[C@H]12 (some centres not stated) | 0.15 | 2.88 | 2.88 | 3.13 µg/mL (≈ 7.81 µM) | 12.5 µg/mL (≈ 31.2 µM) | 92% | 1.9 µg/mL (≈ 4.74 µM) | > 25 µg/mL | 0 | 3.13 µg/mL (≈ 7.81 µM) | 2.88 mg/kg | 0.012 µg/mL (≈ 0.03 µM) | 3.13 µg/mL (≈ 7.81 µM) | 3.13 µg/mL (≈ 7.81 µM) | 3.55 µg/mL (≈ 8.86 µM) | – | – | – |
| C[C@@H](O)[C@H]1C(=O)N2C(C(=O)O)=C(SC(=S)N(C)CCO)[C@H](C)[C@H]12 | 0.53 | 1.36 | 1.33 | 6.25 µg/mL (≈ 17.3 µM) | 0.78 µg/mL (≈ 2.16 µM) | 58% | 3.8 µg/mL (≈ 10.5 µM) | > 25 µg/mL | 0 | 6.25 µg/mL (≈ 17.3 µM) | 4.8 mg/kg | 0.025 µg/mL (≈ 0.0694 µM) | 3.13 µg/mL (≈ 8.68 µM) | 6.25 µg/mL (≈ 17.3 µM) | 4.36 µg/mL (≈ 12.1 µM) | – | – | – |
| C[C@@H](O)[C@H]1C(=O)N2C(C(=O)O)=C(SC(=S)N(C)Cc3ccccc3)[C@H](C)[C@H]12 | – | 1.94 | – | 1.56 µg/mL (≈ 3.84 µM) | 12.5 µg/mL (≈ 30.7 µM) | – | – | > 25 µg/mL | – | 3.13 µg/mL (≈ 7.7 µM) | – | 0.012 µg/mL (≈ 0.0295 µM) | 1.56 µg/mL (≈ 3.84 µM) | 1.56 µg/mL (≈ 3.84 µM) | – | – | – | – |
| CN[C@H](CC(C)C)C(=O)N[C@H]1C(=O)N[C@@H](CC(N)=O)C(=O)N[C@H]2C(=O)N[C@H]3C(=O)N[C@H](C(=O)N[C@H](C(=O)O)c4cc(O)cc(O)c4-c4cc3ccc4O)[C@H](O)c3ccc(c(Cl)c3)Oc3cc2cc(c3O[C@@H]2O[C@H](CO)[C@@H](O)[C@H](O)[C@H]2O[C@H]2C[C@](C)(N)[C@H](O)[C@H](C)O2)Oc2ccc(cc2Cl)[C@H]1O [VANCOMYCIN] | – | – | – | – | > 25 µg/mL | – | – | > 25 µg/mL | – | – | – | 0.39 µg/mL (≈ 0.269 µM) | – | – | – | 5.56 mg/kg | – | – |
| C[C@@H](O)[C@H]1C(=O)N2C(C(=O)O)=C(SC(=S)N(C)c3ccccc3)[C@H](C)[C@H]12 | – | 2.29 | – | 6.25 µg/mL (≈ 15.9 µM) | > 25 µg/mL | – | – | > 25 µg/mL | – | 1.56 µg/mL (≈ 3.97 µM) | – | 0.05 µg/mL (≈ 0.127 µM) | 1.56 µg/mL (≈ 3.97 µM) | 3.13 µg/mL (≈ 7.97 µM) | – | – | – | – |
| C[C@@H](O)[C@H]1C(=O)N2C(C(=O)[O-])=C(SC(=S)N3CC[N+](C)(C)CC3)[C@H](C)[C@H]12 | – | 0.11 | – | 1.56 µg/mL (≈ 3.9 µM) | 0.1 µg/mL (≈ 0.25 µM) | – | – | > 25 µg/mL | – | 3.13 µg/mL (≈ 7.83 µM) | – | 0.012 µg/mL (≈ 0.03 µM) | 3.13 µg/mL (≈ 7.83 µM) | 12.5 µg/mL (≈ 31.3 µM) | – | – | – | – |
| C[C@@H](O)[C@H]1C(=O)N2C(C(=O)O)=C(SC(=S)N(C)c3cccs3)[C@H](C)[C@H]12 | – | 2.05 | – | 3.13 µg/mL (≈ 7.85 µM) | 12.5 µg/mL (≈ 31.4 µM) | – | – | > 25 µg/mL | – | 0.78 µg/mL (≈ 1.96 µM) | – | < 0.006 µg/mL | 1.56 µg/mL (≈ 3.91 µM) | 3.13 µg/mL (≈ 7.85 µM) | – | – | – | – |
| CCN(C)C(=S)SC1=C(C(=O)O)N2C(=O)[C@H]([C@@H](C)O)[C@H]2[C@H]1C | – | 2.26 | – | 6.25 µg/mL (≈ 18.1 µM) | 6.25 µg/mL (≈ 18.1 µM) | – | – | > 25 µg/mL | – | 3.13 µg/mL (≈ 9.09 µM) | – | 0.025 µg/mL (≈ 0.0726 µM) | 3.13 µg/mL (≈ 9.09 µM) | 3.13 µg/mL (≈ 9.09 µM) | – | – | – | – |
| C[C@@H](O)[C@H]1C(=O)N2C(C(=O)O)=C(SC(=S)N3CCC(O)CC3)[C@H](C)[C@H]12 | – | 2.23 | – | 6.25 µg/mL (≈ 16.2 µM) | 3.13 µg/mL (≈ 8.1 µM) | – | – | > 25 µg/mL | – | 6.25 µg/mL (≈ 16.2 µM) | – | 0.025 µg/mL (≈ 0.0647 µM) | 6.25 µg/mL (≈ 16.2 µM) | 6.25 µg/mL (≈ 16.2 µM) | – | – | – | – |
| C[C@@H](O)[C@H]1C(=O)N2C(C(=O)O)=C(SC(=S)N3CC(O)C3)[C@H](C)[C@H]12 | – | 2.32 | – | 12.5 µg/mL (≈ 34.9 µM) | 0.78 µg/mL (≈ 2.18 µM) | – | – | > 25 µg/mL | – | 3.13 µg/mL (≈ 8.73 µM) | – | 0.025 µg/mL (≈ 0.0697 µM) | 6.25 µg/mL (≈ 17.4 µM) | 6.25 µg/mL (≈ 17.4 µM) | – | – | – | – |
| C[C@@H](O)[C@H]1C(=O)N2C(C(=O)O)=C(SC(=S)N3CCN(C)CC3)[C@H](C)[C@H]12 | – | 1.53 | – | 6.25 µg/mL (≈ 16.2 µM) | 1.56 µg/mL (≈ 4.05 µM) | – | – | > 25 µg/mL | – | 3.13 µg/mL (≈ 8.12 µM) | – | 0.025 µg/mL (≈ 0.0648 µM) | 3.13 µg/mL (≈ 8.12 µM) | 6.25 µg/mL (≈ 16.2 µM) | – | – | – | – |
| C[C@@H](O)[C@H]1C(=O)N2C(C(=O)[O-])=C(SC(=S)N3CC[N+](C)(Cc4ccccc4)CC3)[C@H](C)[C@H]12 | 0.4 | 0.15 | 0.15 | 1.56 µg/mL (≈ 3.28 µM) | 1.56 µg/mL (≈ 3.28 µM) | 82% | – | > 25 µg/mL | – | 1.56 µg/mL (≈ 3.28 µM) | 10 mg/kg | < 0.006 µg/mL | 3.13 µg/mL (≈ 6.58 µM) | 6.25 µg/mL (≈ 13.1 µM) | – | – | 3 | 5.36 µg/mL (≈ 11.3 µM) |
